pKd: −log10 of the molar value. Entries after “also recorded” stand apart in the source; their conditions may differ.
What was measured:
WT CYP121A1 dimer = system: WT CYP121A1 dimer; parameters: species or system Mycobacterium tuberculosis
WT CYP121A1 (dimeric) = WT CYP121A1 (dimeric) (Mycobacterium tuberculosis, UniProt P9WPP7); format: binding; conditions: pH 7.4
[1] = molecular target: I166A_I180A CYP121A1 (monomeric) (Mycobacterium tuberculosis, UniProt P9WPP7, I166A/I180A); format: binding
I166A_I180A CYP121A1 = format: binding, Mycobacterium tuberculosis
[2] = system: I166A_I180A CYP121A1 heme thiolate-CO complex

Clc1ccc(COC(Cn2ccnc2)c2ccc(Cl)cc2Cl)cc1 (stereo not drawn) [econazole]
effect of ligand saturation on dimer migration on gel filtration column (WT CYP121A1 dimer): did not cause CYP121A1 to migrate on the column as a monomer

c1c[nH]cn1 [imidazole]
pKd (WT CYP121A1 (dimeric)): 1.34 | decrease of Kd from dimeric to monomeric CYP121A1 [1]: 20 fold | pKd ([1]; pH 7.4): 2.56 | effect of ligand on thermal stability (I166A_I180A CYP121A1): destabilizing

O=C1N[C@@H](Cc2ccc(O)cc2)C(=O)N[C@H]1Cc1ccc(O)cc1 [cYY, cyclo-L-Tyr-L-Tyr]
increase of estimated half-life of the heme thiolate-CO complex by presence of substrate [2]: 50 fold

CC(=O)N1CCN(c2ccc(OCC3COC(Cn4ccnc4)(c4ccc(Cl)cc4Cl)O3)cc2)CC1 (stereo not drawn) [ketoconazole]
effect of ligand on thermal stability (I166A_I180A CYP121A1): modest increase in the stability; also recorded: destabilizing | stabilization of the CO-bound 450 nm species [2]: minimal stabilization of the 450 nm species

Clc1ccc(COC(Cn2ccnc2)c2ccc(Cl)cc2Cl)c(Cl)c1 (stereo not drawn) [miconazole]
effect of ligand saturation on dimer migration on gel filtration column (WT CYP121A1 dimer): did not cause CYP121A1 to migrate on the column as a monomer

From PMC7801616, “Surface hydrophobics mediate functional dimerization of CYP121A1 of Mycobacterium tuberculosis” (Scientific Reports, 2021)
